From the kinase profiling compilation of Christmann-Franck et al. (2016)

Experiments:
Test in all cases: KINOMEscan competition binding
Conditions in all cases: compound 1.0 µM
STK11 (human) = STK11 (human) (UniProt Q15831)
MAP3K9 (human) = MAP3K9 (human) (UniProt P80192)
FLT1 (human) = FLT1 (human) (UniProt P17948)
STK3 (human) = STK3 (human) (UniProt Q13188)
EGFR (human) = EGFR (human) (UniProt P00533)
MARK4 (human) = MARK4 (human) (UniProt Q96L34)
MAP3K15 (human) = MAP3K15 (human) (UniProt Q6ZN16)
CAMK2D (human) = CAMK2D (human) (UniProt Q13557)
ACVR2B (human) = ACVR2B (human) (UniProt Q13705)
ACVR2A (human) = ACVR2A (human) (UniProt P27037)
FGFR3 (human) = FGFR3 (human) (UniProt P22607)
[1] = system: RET (human), P07949 [V804M]
ERBB3 (human) = ERBB3 (human) (UniProt P21860)
PRKG1 (human) = PRKG1 (human) (UniProt Q13976)
NEK9 (human) = NEK9 (human) (UniProt Q8TD19)
EPHA1 (human) = EPHA1 (human) (UniProt P21709)
TNIK (human) = TNIK (human) (UniProt Q9UKE5)
CDK13 (human) = CDK13 (human) (UniProt Q14004)
NEK2 (human) = NEK2 (human) (UniProt P51955)
[2] = system: RET (human), P07949 [M918T]
BMPR1A (human) = BMPR1A (human) (UniProt P36894)
STK32C (human) = STK32C (human) (UniProt Q86UX6)
MYO3B (human) = MYO3B (human) (UniProt Q8WXR4)
MAP3K5 (human) = MAP3K5 (human) (UniProt Q99683)
MKNK2 (human) = MKNK2 (human) (UniProt Q9HBH9)
TNK2 (human) = TNK2 (human) (UniProt Q07912)
RPS6KA1 KD2 (human) = RPS6KA1 KD2 (human) (UniProt Q15418)
MAP4K3 (human) = MAP4K3 (human) (UniProt Q8IVH8)
ULK2 (human) = ULK2 (human) (UniProt Q8IYT8)
[3] = system: EGFR (human), P00533 [G719C]
NEK1 (human) = NEK1 (human) (UniProt Q96PY6)
EPHA3 (human) = EPHA3 (human) (UniProt P29320)
[4] = system: ABL1 (human), P00519 [M351T]
PIP5K1A (human) = PIP5K1A (human) (UniProt Q99755)
TEK (human) = TEK (human) (UniProt Q02763)
CDK17 (human) = CDK17 (human) (UniProt Q00537)
CHUK (human) = CHUK (human) (UniProt O15111)
PKN3 (M.tuberculosis) = PKN3 (M.tuberculosis) (UniProt Q6P5Z2)
PDGFRA (human) = PDGFRA (human) (UniProt P16234)
MINK1 (human) = MINK1 (human) (UniProt Q8N4C8)
PRKCQ (human) = PRKCQ (human) (UniProt Q04759)
PIK3CD (human) = PIK3CD (human) (UniProt O00329)
ACVR1 (human) = ACVR1 (human) (UniProt Q04771)
Sequence of ACVR1 (human) (Q04771 whole entry, looked up): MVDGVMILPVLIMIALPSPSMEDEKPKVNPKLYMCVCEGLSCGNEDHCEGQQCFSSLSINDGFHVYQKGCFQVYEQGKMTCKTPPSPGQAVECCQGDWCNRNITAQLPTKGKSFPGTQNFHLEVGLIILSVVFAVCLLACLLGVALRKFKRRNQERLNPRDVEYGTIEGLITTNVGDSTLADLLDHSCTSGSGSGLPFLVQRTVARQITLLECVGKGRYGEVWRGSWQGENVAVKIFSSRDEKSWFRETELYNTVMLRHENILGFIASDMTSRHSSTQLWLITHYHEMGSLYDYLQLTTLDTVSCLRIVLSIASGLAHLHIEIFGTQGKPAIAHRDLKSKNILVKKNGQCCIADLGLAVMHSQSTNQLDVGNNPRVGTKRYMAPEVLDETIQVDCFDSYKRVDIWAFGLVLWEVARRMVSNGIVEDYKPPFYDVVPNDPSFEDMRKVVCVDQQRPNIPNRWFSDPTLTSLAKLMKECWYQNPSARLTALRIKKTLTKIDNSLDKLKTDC

Sequence of PRKCQ (human) (Q04759 whole entry, looked up): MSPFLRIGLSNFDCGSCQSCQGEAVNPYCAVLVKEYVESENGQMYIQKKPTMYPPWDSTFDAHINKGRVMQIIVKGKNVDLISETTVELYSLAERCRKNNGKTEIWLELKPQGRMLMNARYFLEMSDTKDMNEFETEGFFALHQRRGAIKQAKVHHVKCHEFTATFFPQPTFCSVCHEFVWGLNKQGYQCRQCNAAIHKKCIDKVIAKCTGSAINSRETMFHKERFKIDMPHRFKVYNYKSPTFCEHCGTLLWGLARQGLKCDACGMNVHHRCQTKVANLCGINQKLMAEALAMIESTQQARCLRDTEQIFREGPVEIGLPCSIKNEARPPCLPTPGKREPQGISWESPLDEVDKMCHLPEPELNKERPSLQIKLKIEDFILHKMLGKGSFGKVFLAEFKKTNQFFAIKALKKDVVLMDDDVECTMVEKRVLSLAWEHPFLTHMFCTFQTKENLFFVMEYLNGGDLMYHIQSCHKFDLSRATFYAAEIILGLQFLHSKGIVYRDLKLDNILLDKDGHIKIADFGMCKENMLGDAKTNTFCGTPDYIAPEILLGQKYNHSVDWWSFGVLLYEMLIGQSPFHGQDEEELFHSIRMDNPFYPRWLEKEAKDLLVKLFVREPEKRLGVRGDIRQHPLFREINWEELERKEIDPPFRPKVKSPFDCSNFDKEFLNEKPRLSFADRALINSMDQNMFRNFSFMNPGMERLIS
Sequence of ACVR2B (human) (Q13705 whole entry, looked up): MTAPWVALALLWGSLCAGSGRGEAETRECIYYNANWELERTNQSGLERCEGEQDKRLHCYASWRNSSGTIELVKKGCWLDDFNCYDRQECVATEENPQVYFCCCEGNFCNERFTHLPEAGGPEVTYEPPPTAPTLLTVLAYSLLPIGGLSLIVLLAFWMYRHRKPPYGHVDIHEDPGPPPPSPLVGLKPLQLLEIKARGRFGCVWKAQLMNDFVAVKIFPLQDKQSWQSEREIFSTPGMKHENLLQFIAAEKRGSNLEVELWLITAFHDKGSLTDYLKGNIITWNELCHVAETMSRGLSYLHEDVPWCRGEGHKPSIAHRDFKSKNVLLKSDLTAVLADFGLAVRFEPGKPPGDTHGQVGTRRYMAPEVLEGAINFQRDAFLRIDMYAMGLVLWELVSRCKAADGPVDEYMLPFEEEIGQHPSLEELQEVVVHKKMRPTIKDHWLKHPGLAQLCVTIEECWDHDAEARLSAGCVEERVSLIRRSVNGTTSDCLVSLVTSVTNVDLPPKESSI
Sequence of PRKG1 (human) (Q13976 whole entry, looked up): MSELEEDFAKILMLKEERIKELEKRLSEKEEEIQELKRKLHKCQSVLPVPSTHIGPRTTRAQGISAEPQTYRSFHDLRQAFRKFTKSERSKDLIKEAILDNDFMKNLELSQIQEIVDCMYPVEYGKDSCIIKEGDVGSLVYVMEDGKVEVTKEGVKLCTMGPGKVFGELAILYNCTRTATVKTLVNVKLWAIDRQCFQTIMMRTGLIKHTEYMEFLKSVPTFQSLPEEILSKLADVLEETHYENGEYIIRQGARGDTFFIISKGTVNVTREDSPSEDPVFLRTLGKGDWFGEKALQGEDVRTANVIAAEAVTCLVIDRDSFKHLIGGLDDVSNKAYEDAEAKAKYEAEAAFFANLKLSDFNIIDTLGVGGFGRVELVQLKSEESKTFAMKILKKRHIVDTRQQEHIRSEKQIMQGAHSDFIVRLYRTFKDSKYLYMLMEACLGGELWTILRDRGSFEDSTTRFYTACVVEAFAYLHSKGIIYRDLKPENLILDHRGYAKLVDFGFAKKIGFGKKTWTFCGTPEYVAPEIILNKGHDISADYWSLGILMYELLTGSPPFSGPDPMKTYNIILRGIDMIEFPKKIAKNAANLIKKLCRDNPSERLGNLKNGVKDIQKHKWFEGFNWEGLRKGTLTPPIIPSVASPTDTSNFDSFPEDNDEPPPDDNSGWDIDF
Sequence of CDK13 (human) (Q14004 whole entry, looked up): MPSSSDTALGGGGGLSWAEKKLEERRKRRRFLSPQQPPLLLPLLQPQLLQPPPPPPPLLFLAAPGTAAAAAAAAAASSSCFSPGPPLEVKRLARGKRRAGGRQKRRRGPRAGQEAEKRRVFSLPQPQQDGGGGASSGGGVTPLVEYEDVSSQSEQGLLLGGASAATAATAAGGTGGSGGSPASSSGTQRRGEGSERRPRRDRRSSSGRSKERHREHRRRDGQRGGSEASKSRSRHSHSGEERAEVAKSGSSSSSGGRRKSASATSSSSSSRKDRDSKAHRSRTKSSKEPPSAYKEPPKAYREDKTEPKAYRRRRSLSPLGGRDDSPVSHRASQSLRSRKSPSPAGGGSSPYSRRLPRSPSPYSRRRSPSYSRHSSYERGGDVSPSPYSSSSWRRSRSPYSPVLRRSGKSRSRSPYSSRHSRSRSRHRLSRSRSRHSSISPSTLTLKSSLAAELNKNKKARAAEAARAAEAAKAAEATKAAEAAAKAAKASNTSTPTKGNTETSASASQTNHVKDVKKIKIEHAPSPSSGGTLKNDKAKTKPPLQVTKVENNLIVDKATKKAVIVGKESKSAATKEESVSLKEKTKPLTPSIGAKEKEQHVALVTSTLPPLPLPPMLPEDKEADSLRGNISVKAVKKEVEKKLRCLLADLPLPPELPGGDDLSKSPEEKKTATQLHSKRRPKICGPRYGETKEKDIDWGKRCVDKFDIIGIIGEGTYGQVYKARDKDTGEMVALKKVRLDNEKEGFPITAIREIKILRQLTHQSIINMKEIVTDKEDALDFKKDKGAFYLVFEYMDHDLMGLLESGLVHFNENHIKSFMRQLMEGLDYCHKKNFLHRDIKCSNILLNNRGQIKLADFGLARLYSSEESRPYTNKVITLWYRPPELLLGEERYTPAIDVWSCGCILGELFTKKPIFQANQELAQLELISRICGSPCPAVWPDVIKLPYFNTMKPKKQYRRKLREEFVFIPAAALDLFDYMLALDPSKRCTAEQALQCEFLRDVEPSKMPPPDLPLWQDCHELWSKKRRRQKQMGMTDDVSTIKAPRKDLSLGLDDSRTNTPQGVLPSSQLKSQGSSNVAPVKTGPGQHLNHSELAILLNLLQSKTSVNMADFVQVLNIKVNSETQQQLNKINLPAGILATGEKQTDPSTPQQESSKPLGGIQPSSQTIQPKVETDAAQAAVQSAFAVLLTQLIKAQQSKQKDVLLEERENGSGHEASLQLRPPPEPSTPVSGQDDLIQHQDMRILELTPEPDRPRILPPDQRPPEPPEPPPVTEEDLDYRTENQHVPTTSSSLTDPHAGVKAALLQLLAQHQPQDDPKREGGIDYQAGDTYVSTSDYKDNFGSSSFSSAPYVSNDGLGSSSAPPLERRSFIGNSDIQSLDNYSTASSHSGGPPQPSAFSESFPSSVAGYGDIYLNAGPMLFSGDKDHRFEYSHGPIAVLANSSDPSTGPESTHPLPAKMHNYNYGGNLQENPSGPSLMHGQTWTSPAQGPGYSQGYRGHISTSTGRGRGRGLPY
Sequence of PDGFRA (human) (P16234 whole entry, looked up): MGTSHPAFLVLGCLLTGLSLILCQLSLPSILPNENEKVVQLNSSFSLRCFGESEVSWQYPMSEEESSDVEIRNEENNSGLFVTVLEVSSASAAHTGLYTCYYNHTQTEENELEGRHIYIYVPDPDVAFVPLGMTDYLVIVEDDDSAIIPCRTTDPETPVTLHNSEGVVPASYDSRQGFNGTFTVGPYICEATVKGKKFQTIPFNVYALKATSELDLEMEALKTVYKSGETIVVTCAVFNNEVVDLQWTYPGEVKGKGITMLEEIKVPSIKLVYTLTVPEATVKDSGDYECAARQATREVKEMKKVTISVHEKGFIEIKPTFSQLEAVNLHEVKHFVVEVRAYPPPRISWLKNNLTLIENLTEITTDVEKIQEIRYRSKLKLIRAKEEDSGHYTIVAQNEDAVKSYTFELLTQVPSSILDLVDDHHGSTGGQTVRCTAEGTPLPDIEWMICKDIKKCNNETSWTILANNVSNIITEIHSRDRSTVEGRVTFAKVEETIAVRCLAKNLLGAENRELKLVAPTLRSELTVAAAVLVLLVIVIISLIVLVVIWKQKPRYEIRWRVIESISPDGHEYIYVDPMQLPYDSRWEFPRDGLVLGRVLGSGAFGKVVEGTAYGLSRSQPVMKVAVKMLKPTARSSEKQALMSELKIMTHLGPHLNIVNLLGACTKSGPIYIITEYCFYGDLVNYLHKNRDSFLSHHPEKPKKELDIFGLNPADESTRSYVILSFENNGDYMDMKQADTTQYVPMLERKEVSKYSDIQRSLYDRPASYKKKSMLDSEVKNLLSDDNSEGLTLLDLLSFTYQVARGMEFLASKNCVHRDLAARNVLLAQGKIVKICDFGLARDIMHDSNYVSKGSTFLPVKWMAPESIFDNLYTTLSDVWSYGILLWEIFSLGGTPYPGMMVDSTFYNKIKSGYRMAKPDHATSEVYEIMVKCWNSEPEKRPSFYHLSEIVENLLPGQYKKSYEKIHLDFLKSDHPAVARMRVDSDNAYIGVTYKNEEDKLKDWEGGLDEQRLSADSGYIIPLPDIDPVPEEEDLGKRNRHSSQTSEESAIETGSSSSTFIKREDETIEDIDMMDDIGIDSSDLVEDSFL

In the case of CN(C)C/C=C/C(=O)Nc1cccc(C(=O)Nc2ccc(Nc3nccc(-c4cccnc4)n3)cc2)c1, the kinase still bound, per cent of control (STK11 (human)) was 67%, the kinase still bound, per cent of control (MAP3K9 (human)) was 80% and the kinase still bound, per cent of control (FLT1 (human)) was 75%. For the same compound, the kinase still bound, per cent of control (STK3 (human)) was 87%, the kinase still bound, per cent of control (EGFR (human)) was 95% and the kinase still bound, per cent of control (MARK4 (human)) was 40%. For the same compound, the kinase still bound, per cent of control (MAP3K15 (human)) was 88%, the kinase still bound, per cent of control (CAMK2D (human)) was 100% and the kinase still bound, per cent of control (ACVR2B (human)) was 56%. The kinase still bound, per cent of control (ACVR2A (human)) was 43%, the kinase still bound, per cent of control (FGFR3 (human)) was 78% and the kinase still bound, per cent of control [1] was 100%. It also gave a kinase still bound, per cent of control (ERBB3 (human)) of 100%, a kinase still bound, per cent of control (PRKG1 (human)) of 100% and a kinase still bound, per cent of control (NEK9 (human)) of 48%. The kinase still bound, per cent of control (EPHA1 (human)) was 95%, the kinase still bound, per cent of control (TNIK (human)) was 40% and the kinase still bound, per cent of control (CDK13 (human)) was 43%. For the same compound, the kinase still bound, per cent of control (NEK2 (human)) was 86%, the kinase still bound, per cent of control [2] was 100% and the kinase still bound, per cent of control (BMPR1A (human)) was 46%. The kinase still bound, per cent of control (STK32C (human)) was 98%, the kinase still bound, per cent of control (MYO3B (human)) was 100% and the kinase still bound, per cent of control (MAP3K5 (human)) was 100%. The kinase still bound, per cent of control (MKNK2 (human)) was 13%, the kinase still bound, per cent of control (TNK2 (human)) was 100% and the kinase still bound, per cent of control (RPS6KA1 KD2 (human)) was 82%. For the same compound, the kinase still bound, per cent of control (MAP4K3 (human)) was 38%, the kinase still bound, per cent of control (ULK2 (human)) was 86% and the kinase still bound, per cent of control [3] was 48%. The kinase still bound, per cent of control (NEK1 (human)) was 77%, the kinase still bound, per cent of control (EPHA3 (human)) was 80% and the kinase still bound, per cent of control [4] was 42%. The kinase still bound, per cent of control (PIP5K1A (human)) was 18%, the kinase still bound, per cent of control (TEK (human)) was 98% and the kinase still bound, per cent of control (CDK17 (human)) was 84%. For the same compound, the kinase still bound, per cent of control (CHUK (human)) was 53%, the kinase still bound, per cent of control (PKN3 (M.tuberculosis)) was 69% and the kinase still bound, per cent of control (PDGFRA (human)) was 67%. It also gave a kinase still bound, per cent of control (MINK1 (human)) of 37%, a kinase still bound, per cent of control (PRKCQ (human)) of 100% and a kinase still bound, per cent of control (PIK3CD (human)) of 100%. For the same compound, the kinase still bound, per cent of control (ACVR1 (human)) was 70%.

In the case of Cc1cc(NC(=O)c2cccc(NC(=O)/C=C/CN(C)C)c2)ccc1Nc1nccc(-c2cccnc2)n1, the kinase still bound, per cent of control (STK11 (human)) was 100%, the kinase still bound, per cent of control (MAP3K9 (human)) was 100% and the kinase still bound, per cent of control (FLT1 (human)) was 100%. The kinase still bound, per cent of control (STK3 (human)) was 48%, the kinase still bound, per cent of control (EGFR (human)) was 100% and the kinase still bound, per cent of control (MARK4 (human)) was 97%. It also gave a kinase still bound, per cent of control (MAP3K15 (human)) of 82%, a kinase still bound, per cent of control (CAMK2D (human)) of 100% and a kinase still bound, per cent of control (ACVR2B (human)) of 100%. For the same compound, the kinase still bound, per cent of control (ACVR2A (human)) was 100%, the kinase still bound, per cent of control (FGFR3 (human)) was 100% and the kinase still bound, per cent of control [1] was 100%. For the same compound, the kinase still bound, per cent of control (ERBB3 (human)) was 93%, the kinase still bound, per cent of control (PRKG1 (human)) was 72% and the kinase still bound, per cent of control (NEK9 (human)) was 100%. It also gave a kinase still bound, per cent of control (EPHA1 (human)) of 99%, a kinase still bound, per cent of control (TNIK (human)) of 56% and a kinase still bound, per cent of control (CDK13 (human)) of 100%. For the same compound, the kinase still bound, per cent of control (NEK2 (human)) was 100%, the kinase still bound, per cent of control [2] was 90% and the kinase still bound, per cent of control (BMPR1A (human)) was 100%. For the same compound, the kinase still bound, per cent of control (STK32C (human)) was 95%, the kinase still bound, per cent of control (MYO3B (human)) was 89% and the kinase still bound, per cent of control (MAP3K5 (human)) was 100%. The kinase still bound, per cent of control (MKNK2 (human)) was 6.8%, the kinase still bound, per cent of control (TNK2 (human)) was 90% and the kinase still bound, per cent of control (RPS6KA1 KD2 (human)) was 88%. It also gave a kinase still bound, per cent of control (MAP4K3 (human)) of 100%, a kinase still bound, per cent of control (ULK2 (human)) of 96% and a kinase still bound, per cent of control [3] of 81%. The kinase still bound, per cent of control (NEK1 (human)) was 81%, the kinase still bound, per cent of control (EPHA3 (human)) was 67% and the kinase still bound, per cent of control [4] was 81%. For the same compound, the kinase still bound, per cent of control (PIP5K1A (human)) was 75%, the kinase still bound, per cent of control (TEK (human)) was 76% and the kinase still bound, per cent of control (CDK17 (human)) was 100%. It also gave a kinase still bound, per cent of control (CHUK (human)) of 100%, a kinase still bound, per cent of control (PKN3 (M.tuberculosis)) of 100% and a kinase still bound, per cent of control (PDGFRA (human)) of 71%. For the same compound, the kinase still bound, per cent of control (MINK1 (human)) was 71%, the kinase still bound, per cent of control (PRKCQ (human)) was 100% and the kinase still bound, per cent of control (PIK3CD (human)) was 95%. For the same compound, the kinase still bound, per cent of control (ACVR1 (human)) was 100%.
